Test results from patent US10213451B2, “Methods and compounds for modulating the secretion or expression of adhesion proteins or angiopoietins of cells” (PACIFIC ARROW LIMITED, priority 2004, dated 2019).
≈ marks a conversion by molar mass, not a printed value. Entries after “also recorded” stand apart in the source; their conditions may differ. Like-named read-outs stand apart in the source and are kept apart here.

Columns and labels:
skin cancer cells = assay: MTT assay, growth of skin cancer cells; assay type: cell-based; conditions: Homo sapiens
Experimental: (§1) Cells. Human cancer cell lines were obtained from American Type Culture Collection: HTB-9 (bladder), HeLa-S3 (cervix), DU145 (prostate), H460 (lung), MCF-7 (breast), K562 (leukocytes), HCT116 (colon), HepG2 (liver), U2OS (bone), T98G (brain), SK-MEL-5 (Skin) and OVCAR-3 (ovary). The cells were grown in following culture media: HeLa-53, DU145, MCF-7, Hep-G2 and T98G are in MEN (Earle's salts); HTB-9, H460, K562 and OVCAR-3 in RPMI-1640; HCT-116 and U2OS in McCoy-5A. They are supplemented with 10% fetal calf serum, glutamine and antibiotics, and incubated in an incubator with 5% CO2 humidified at 37° C.
(§2) MTT Assay. The procedure for MTT assay followed the method described by Carmichael et al. (1987) with modifications. […] The formazan (product of the reduction of tetrazolium by viable cells) formed and was dissolved with DMSO and the O.D. at 490 nm, and was measured by an ELISA reader. The MTT level of the cells before drug-treatment was also measured (T0). The % cell-growth (% G) is calculated as: % G=(TD−T0/TC−T0)×100(1), where TC or TD represents O.D. readings of control or drug-treated cells. When T0>TD, then the cytotoxicity (LC) expressed as % of the control is calculated as: % LC=(TD−T0/T0)×100(2).

ovarian cancer cells = assay: MTT assay, growth of ovarian cancer cells (FIG. 3A, 3B); assay type: cell-based; conditions: Homo sapiens, read-out: IC50, inhibiting growth of ovarian cancer cells
Experimental: as §1, §2

[1] = system: Fibronectin secretion from Hey8A (human ovarian carcinoma cells); assay: Fibronectin secretion (Western blot), Hey8A cells; assay type: cell-based; conditions: 10 ug/ml, 24 hours
Experimental: Inhibition of Fibronectin secretion is physiological and the determination of its quantity is based on the following criteria: • 1. Fibronectin is secreted from viable cells. Only cell with over 85% viable cells after drug-treatment are employed in these experiments. The viable cells were determined by MTT assay. • 2. For comparison, the immuno-band intensity from each samples are normalized with cell mass. The cell mass was determined by the MTT assay and is assigned as a MTT unit for each cell sample.
Cells: Hey8A (human ovarian carcinoma cells) were grew in RPMI 1640 medium to 90% confluent before drug-treatment. Drug-treatment: Cells cultures were replaced with fresh RPMI medium containing either DMSO (as control) [D1]; or Xanifolia-Y (10, 15, or 20 ug/ml) [Y1, Y2 and Y3]. Aliquot of medium was removed as 0 hours sample and no FN was detected at this time. After 24 hours, aliquot of culture medium was taken out for Fibronectin determination (Western blot method). Cell viability at 24 hours was determined by MTT assay. Cultures were replaced with RPMI medium (5 ml) with MTT and incubated for an hour. The formation of formazan was dissolved in DMSO and OD at 570 nm was measured.
Western Blot: Spent culture medium (0.6 ml) was mixed with SDS sample buffer (0.2 ml), boiled for 3 minutes before loading to SDS gel. Samples (60 ul/lane) were applied to a 6% SDS gel and electrophoresis was conducted with 100 volts for 2 hours. Protein was transferred to a nitrocellulose paper electrophoretically (30 min at 100 volts). The Western blot was incubated with the first antibody (mouse anti-FN, specific to human FN, SIGMA F0916) and second antibody (Anti-mouse IgG AP conjugated, Promega S3721). The immunobands were developed with BCIP/NBT color development system (Promega S3771).

[2] = system: ES2 (human ovarian cancer) cells transplanted intra-peritoneally; assay: Animal study, survival of mice with intra-peritoneal ES2 tumor; assay type: in vivo, Athymic Nu/Nu mice; conditions: for survival of tumor bearing mice: 2.5 mg/kg; for median survival time: i.p. 2.5 mg/kg
Experimental: Methods • Athymic Nu/Nu mice are divided into three groups (A, B and C) with four animals in each group. • On day 0, mice of group A and B were transplanted intra-peritoneally with ES2 (human ovarian cancer) cells. • On day 1, mice from B and C groups received drug (Xanifolia-Y, by i.p. route at dose of 5 mg/kg) • On days 2 to 4, and 7 to 11, B and C groups animals received daily drug administration of Xanifolia-Y, by i.p. route at dose of 2.5 mg/kg. • Group A mice have no drug-treatment.
Methods • Athymic Nu/Nu mice were divided into three groups (A, D and E) with four animals in each group. • On day 0, all mice were transplanted intra-peritoneally with ES2 (human ovarian cancer) cells. • Group A mice received no drug-treatment. • Group D: From day 4, mice received a daily drug administration of Xanifolia-Y, via i.p. route for 9 days at dose of 2.5 mg/kg. • Group E: From day 10, mice received daily drug administration of Xanifolia-Y, via i.p. route for 10 days at dose of 2.5 mg/kg. […]

[3] = drug-treatment started on day 10 after tumor inoculation
[4] = drug-treatment starting on day 4 after tumor inoculation

## C/C=C(/C)C(=O)O[C@H]1[C@H](OC(=O)/C(C)=C\C)[C@@]2(CO)C(CC1(C)C)C1=CCC3[C@@]4(C)CC[C@H](O[C@@H]5OC(C(=O)O)[C@@H](O)C(O[C@@H]6O[C@@H](CO)C(O)C6O)C5O[C@@H]5OC(CO)[C@H](O)C(O)C5O)C(C)(C)C4CC[C@@]3(C)[C@]1(C)[C@@H](O)[C@H]2O (stereo partly drawn) [Xanifolia-Y, 3-O-[β-D-galactopyranosyl (1→2)]-α-L-arabinofuranosy (1→3)-β-D-glucuronopyranosyl-21,22-O-diangeloyl-3β, 15α, 16α, 21β, 22α, 28-hexahydroxyolean-12-ene]
Skin cancer cells; FIG. 3C, purified compound, read-out: IC50, inhibition of growth of skin cancer cells
  IC50: 0.23 µg/mL (≈ 0.202 µM)
Skin cancer cells; read-out: IC50 on skin cells
  IC50: 12 µg/mL (≈ 10.5 µM)
Ovarian cancer cells
  IC50: ~1.5 µg/mL (≈ 1.31 µM)
[1]
  Fibronectin secreted as compared with the DMSO control: 31%
  average band intensity after corrected with the MTT unit: 366
[1]; Homo sapiens, Ovarian carcinoma cell
  inhibition at 10 µg/mL: 69%
[2]; Group C: no tumor, i.p. 5 mg/kg day 1, 2.5 mg/kg days 2-4 and 7-11
  survival of mice without tumor given drug: over 50 days
[2]; Group D: i.p. 2.5 mg/kg daily, 9 times from day 4
  survival of tumor bearing mice: all survived; also recorded: no death in 50 days
[2]; Group E: i.p. 2.5 mg/kg daily, 10 times from day 10
  survival of tumor bearing mice: half the number of mice survived; also recorded: half of the mice survive in 50 days
[2]; [3]
  extension of life span: 29%
  median survival time: 31 days
[2]; [4]
  extension of life span: 141%
  median survival time: 58 days
